In US8226943B2, “Antibodies to notch receptors” (OncoMed Pharmaceuticals, Inc., priority 2008, dated 2012):

Experiments:
stroma of Colo205 tumors = test: Microarray gene expression in stroma of treated xenograft tumors, Colo205; assay type: in vivo, mice; settings: 59R1 vs control
Method: Gene expression levels in various xenograft tumor models treated with the 59R1 IgG2 antibody were analyzed by microarray analysis. Global gene expression profiling analysis was performed on Affymetrix HG-U133 plus 2.0 microarray (Affymetrix, Santa Clara, Calif.). Three independent RNA samples of xenograft whole tumors from the control and treatment groups were isolated and hybridized to the microarrays according to the manufacturer's instructions. Scanned array background adjustment and signal intensity normalization were performed with GCRMA algorithm in the open-source bioconductor software (www.bioconductor.org). The expression level of each gene was normalized by z-score transformation across the samples in the control (CTRL) and treatment (59R1) groups.

stroma of T1 tumors = test: Microarray gene expression in stroma of treated xenograft tumors, T1; assay type: in vivo, mice; settings: 59R1 vs control
[1] = system: hDLL4-induced Notch2 signaling; test: Luciferase reporter assay, hDLL4-induced Notch2 signaling in Hela cells; assay type: cell-based, human; settings: antibody titrated from 40 μg/ml
Method: Luciferase reporter assays were used to assay the 59R1 antibody for its ability to block hDLL4-, hJAG1-, and hJAG2-induced Notch2 signaling.
Hela cells that stably overexpress human Notch2 were transiently transfected with firefly luciferase with a synthetic 8×CBS promoter (Ong et al., 2006, J. of Biological Chemistry, 281:5106-5119), pSPORT6 MAML-1, and Renilla luciferase-CMV as a transfection control. Cells were incubated with 100 ng of immobilized hDLL4 (R&D systems) with the indicated antibodies for 16 hours and then assayed using Dual-Glo (Promega) according to the manufacturer's instructions. Control antibody was at a concentration of 40 μg/ml. 59R1 IgG2 antibody was titrated, starting at 40 μg/ml, and then diluted by one-fourth. The gamma secretase inhibitor (GSI) dibenzazepine (DBZ) was used as a control at 1 μM.

B51 breast tumors = test: Limiting dilution assay of cancer stem cell frequency, B51 breast tumors; assay type: in vivo, NOD-SCID mice
Text: Limiting dilution assays (LDAs) can be used to assess the effect of a Notch-binding agent on solid tumor cancer stem cells and on the tumorigenicity of a tumor comprising the cancer stem cells. The assays can be sued to determine the frequency of cancer stem cells in tumors from animals treated with the Notch-binding agent or other agent and to compare that frequency to the frequency of cancer stem cells in tumors from control animals.
An LDA was used to assess the effect on the tumorigenicity of the B51 breast tumors that were treated with the combination of control antibody (1B711) plus paclitaxel (Taxol) or treated with the combination of 59R1 and paclitaxel, as described above in Example 7. In addition, the effect of treatment of B51 breast tumors with the control antibody alone or 59R1 alone was also determined by LDA. The doses of antibodies and paclitaxel and the schedule of dosing for the control antibody group and the 59R1 group were the same as described in Example 7, above for the other two treatment groups. After three doses of antibodies and/or paclitaxel, tumors were harvested, processed and dissociated into single cells. The human tumor cells were isolated from the xenograft tumor cells by incubation with biotinylated mouse antibodies (α-mouse CD45-biotin1:200 dilution and rat α-mouse H2 Kd-biotin1:100 dilution, BioLegend, San Diego, Calif.) on ice for 30 min, followed by addition of streptavidin-labeled magnetic beads and removal of the mouse cells with the aid of a magnet. The human cells in the suspension were harvested and counted.
A serial titration of cells (30, 90, 270, and 810 cells) from each of the four treatment groups was injected in a 1:1 (v/v) mixture of FACS buffer and Matrigel into a new set of NOD-SCID mice (n=10/group). Tumors were allowed to grow for 72 days. The percentage of mice with detectable tumors was determined in all groups. The cancer stem cell frequency was then calculated using L-Calc™ software (StemCell Technologies Inc.; downloadable from www.stemcell.com/search/default.asp).

murine Notch2 = test: DLL4-Fc induced receptor activation in transfected PC3 cells, murine Notch2; assay type: cell-based, mouse; settings: immobilized DLL4-Fc
Method: 59R5 was determined to have similar activity in blocking Notch2 and Notch3 signaling as 59R1. Receptor activation was determined in luciferase-based assays. PC3 tumor cells were transiently transfected with a human or mouse Notch receptor (human Notch2, murine Notch2, human Notch3, or murine Notch3) and […] inducible reporter construct. Transfected cells were incubated with different concentrations of 59R1 or 59R5 antibody in the presence of passively immobilized DLL4-Fc protein. Notch receptor activation was determined by measuring luciferase activity.

[2] = B51, combination of 59R1 and paclitaxel

“59R1: human IgG2 antibody binding Notch2 and Notch3; heavy and light chain SEQ ID NO:16 and 18; ATCC PTA-9547” was tested, and the “Fold 1417466_at (Rgs5)” value (stroma of Colo205 tumors) was −3.39, the “Fold 1417714_x_at (Hba-al/Hba-a2)” value (stroma of Colo205 tumors) was −8.37 and the “Fold 1420872_at (Gucy1b3)” value (stroma of Colo205 tumors) was −1.94. The “Fold 1420942_s_at (Rgs5)” value (stroma of Colo205 tumors) was −5.52, the “Fold 1421964_at (Notch3)” value (stroma of Colo205 tumors) was −3.26 and the “Fold 1434141_at (Gucy1a3)” value (stroma of Colo205 tumors) was −2.49. The “Fold 1451501_a_at (Ghr)” value (stroma of Colo205 tumors) was −1.83, the “Fold 1452590_a_at (Plac9)” value (stroma of Colo205 tumors) was −1.61 and the “Fold 1416286_at (Rgs4)” value (stroma of T1 tumors) was −1.13. For the same substance, the “Fold 1417466_at (Rgs5)” value (stroma of T1 tumors) was −1.99, the “Fold 1417714_x_at (Hba-al/Hba-a2)” value (stroma of T1 tumors) was 1.42 and the “Fold 1418829_a_at (Eno2)” value (stroma of T1 tumors) was 1.29. The “Fold 1419302_at (Heyl)” value (stroma of T1 tumors) was −1.07, the “Fold 1420872_at (Gucy1b3)” value (stroma of T1 tumors) was −1.01 and the “Fold 1420941_at (Rgs5)” value (stroma of T1 tumors) was −1.97. For the same substance, the “Fold 1420942_s_at (Rgs5)” value (stroma of T1 tumors) was −1.18, the “Fold 1421964_at (Notch3)” value (stroma of T1 tumors) was −1.01 and the “Fold 1422789_at (Aldh1a2)” value (stroma of T1 tumors) was −2.16. The “Fold 1428361_x_at (Hba-al/Hba-a2)” value (stroma of T1 tumors) was 1.73, the “Fold 1434141_at (Gucy1a3)” value (stroma of T1 tumors) was 1.20 and the “Fold 1449280_at (Esm1)” value (stroma of T1 tumors) was 1.18. The “Fold 1449632_s_at (Fkbp10)” value (stroma of T1 tumors) was 1.07, the “Fold 1451501_a_at (Ghr)” value (stroma of T1 tumors) was −1.12 and the “Fold 1452590_a_at (Plac9)” value (stroma of T1 tumors) was 1.20. For the same substance, the “Fold 1459713_s_at (Tmem16a)” value (stroma of T1 tumors) was −2.14, the “hDLL4-induced Notch2 reporter activity” value [1] was “inhibit” and the “reduction of cancer stem cell frequency relative to the control” value (B51 breast tumors; B51, 59R1 alone) was “more than two-fold”. For the same substance, the “reduction of cancer stem cell frequency relative to treatment with 59R1 alone” value (B51 breast tumors; [2]) was “more than two-fold”, the “reduction of cancer stem cell frequency relative to treatment with paclitaxel alone” value (B51 breast tumors; [2]) was “about twelve-fold” and the “reduction of cancer stem cell frequency relative to treatment with the control antibody” value (B51 breast tumors; [2]) was “about 4.5 fold”.
For “59R5: human antibody that specifically binds human Notch 2 and human Notch 3; heavy and light chain SEQ ID NO:49 and 18; ATCC PTA-10170”, the “ligand-induced activation of murine Notch2 receptor signaling” value (murine Notch2) was “blocked”.
